Values of other authors in patent US9840652B2, “Water-based drilling fluid with cyclodextrin shale stabilizer” (Halliburton Energy Services, Inc., priority 2012, dated 2017).

Legend:
[1] = test system: Daphnia magna
[2] = test system: desmodesmus subspicatus
[3] = test system: Cyprinus carpio (common carp)

SMILES: OC[C@H]1O[C@@H]2O[C@H]3[C@H](O)[C@@H](O)[C@@H](O[C@H]4[C@H](O)[C@@H](O)[C@@H](O[C@H]5[C@H](O)[C@@H](O)[C@@H](O[C@H]6[C@H](O)[C@@H](O)[C@@H](O[C@H]7[C@H](O)[C@@H](O)[C@@H](O[C@H]8[C@H](O)[C@@H](O)[C@@H](O[C@H]1[C@H](O)[C@H]2O)O[C@@H]8CO)O[C@@H]7CO)O[C@@H]6CO)O[C@@H]5CO)O[C@@H]4CO)O[C@@H]3CO [β-cyclodextrin]
- 48-hr EC50 [1]: > 100 µg/mL
- 72-hr density EC50 [2]: > 100 µg/mL
- 96-hr LC50 [3]: 7561 µg/mL
